How the values were obtained:
neutral sphingomyelinase = experiment: Neutral sphingomyelinase activity in vitro; type: biochemical
Text: (§1) In addition to ceramidase, inhibition of cerebroside synthase and sphingomyelin synthase or stimulation of sphingomyelinase or cerebrosidase could result in elevations in endogenous ceramide levels. Therefore, the effects of D- and L-e-MAPP were examined on these enzyme activities in vitro and in cells.

[1] = system: endogenous levels of sphingomyelin; experiment: Endogenous sphingomyelin levels in cells; type: cell-based
Text: as §1

[2] = system: HL-60 human myelocytic leukemia cells; experiment: HL-60 cell proliferation (cell counting); type: cell-based; conditions: for effect on cell growth: HL-60 cells, 5 μM, time course
Experimental: (§2) Proliferation and cell cycle studies. HL-60 human myelocytic leukemia cells (obtained from the American Type Culture Collection) were grown in RPMI 1640 medium containing 10 fetal calf serum at 37° C. in 5% CO2 incubator. For proliferation and cell cycle studies, cells were resuspended at a density of 2×10^5 cells/ml in serum-free media containing insulin (5 mg/liter) and transferrin (5 mg/liter) and sodium selenite (5 μg/liter) for 2-4 h. Cells were then treated with the indicated compounds. Ethanol concentration was always maintained at less than 0.1%. Cell proliferation was determined by counting cells using a hemacytometer, cell viability was evaluated by trypan blue dye exclusion, and cell cycle analysis was determined by propidium iodide flow cytometry as described (Chao et al, J. Biol. Chem. 267:23459 (1992)).
In structure-function analysis of ceramide-mediated growth suppression using amides of phenylaminoalcohols, D- and L-erythro-MAPP were employed. In these studies, HL-60 cells were treated with 5 μM of either D-e-MAPP or L-e-MAPP, and growth was determined at the indicated time points (FIG. 2A).
(§3) Studies were conducted examining the uptake and metabolism of D- and L-MAPP. In the first set of studies, the effect of duration of exposure of HL-60 cells to D-e-MAPP on the bioactivity of the molecule was determined. D-e-MAPP added to cells could be washed off by repeated sedimentation and washing of cells. Thus, after five cycles of washing, less than 10% of D-MAPP remained associated with the cell pellet-compared to unwashed cells (FIG. 5A).

HL-60 cells [3] = experiment: Cell cycle analysis by propidium iodide flow cytometry; type: cell-based, human; conditions: HL-60, 5 μM, 48 h
Experimental: as §2

acidic sphingomyelinase = target: T1, acidic sphingomyelinase (Homo sapiens, UniProt P17405); experiment: Acidic sphingomyelinase activity in vitro; type: biochemical
T1 sequence (P17405 47-631): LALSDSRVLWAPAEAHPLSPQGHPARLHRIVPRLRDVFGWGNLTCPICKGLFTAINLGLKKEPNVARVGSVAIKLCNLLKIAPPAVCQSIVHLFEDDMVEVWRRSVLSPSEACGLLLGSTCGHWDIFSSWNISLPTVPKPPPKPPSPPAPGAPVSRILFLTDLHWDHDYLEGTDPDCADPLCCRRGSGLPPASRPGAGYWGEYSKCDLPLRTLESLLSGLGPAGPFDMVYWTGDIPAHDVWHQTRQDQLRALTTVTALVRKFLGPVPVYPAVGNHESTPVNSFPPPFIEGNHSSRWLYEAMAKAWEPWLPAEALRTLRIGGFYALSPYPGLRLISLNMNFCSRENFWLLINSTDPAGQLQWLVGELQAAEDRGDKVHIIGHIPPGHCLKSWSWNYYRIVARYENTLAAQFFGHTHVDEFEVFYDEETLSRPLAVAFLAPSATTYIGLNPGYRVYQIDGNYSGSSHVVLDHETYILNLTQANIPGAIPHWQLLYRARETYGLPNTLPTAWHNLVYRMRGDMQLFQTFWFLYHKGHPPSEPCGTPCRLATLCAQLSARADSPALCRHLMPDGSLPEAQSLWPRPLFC
Text: as §1

[4] = target: T2, Glucosylceramide synthase (Homo sapiens, UniProt Q16739); experiment: Glucocerebroside (glucosylceramide) synthase assay in vitro; type: biochemical; conditions: 20 μM; for Glucosylceramide synthase activity: Control 1.009 ± 0.0424; for inhibition of cerebroside synthase activity: Table I
T2 sequence (Q16739 1-394): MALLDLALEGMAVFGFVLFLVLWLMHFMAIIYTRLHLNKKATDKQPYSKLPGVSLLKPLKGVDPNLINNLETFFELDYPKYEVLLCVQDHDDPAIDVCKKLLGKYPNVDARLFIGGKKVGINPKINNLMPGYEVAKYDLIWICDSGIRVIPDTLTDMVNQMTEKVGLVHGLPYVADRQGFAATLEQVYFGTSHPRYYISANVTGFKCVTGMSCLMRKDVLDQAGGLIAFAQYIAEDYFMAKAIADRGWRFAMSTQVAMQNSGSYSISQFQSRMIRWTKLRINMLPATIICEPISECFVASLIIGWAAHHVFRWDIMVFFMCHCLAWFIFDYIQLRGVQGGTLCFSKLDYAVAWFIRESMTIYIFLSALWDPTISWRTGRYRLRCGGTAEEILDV
Experimental: Glucocerebrosidase and glucocerebroside synthase assays. In vitro assays for gluccerebrosidase and for cerebroside synthase were performed as described (Abe et al, J. Biochem. (Tokyo) 11:191 (1992)).
as §1

HL-60 cells [5] = experiment: Uptake of tritium-labeled compounds by HL-60 cells; type: cell-based, human; conditions: for partitioning of label taken up into lipid organic phase: HL-60, 0-72 h, 5 to 30 μM; for uptake by cells: 24 hr
Experimental: Uptake and metabolism studies. HL-60 cells were grown as described and treated with ^3 H-labeled compounds at concentrations ranging from 0 to 10 μM. At the indicated time points, cell pellets were separated from media and ^3 H radioactivity was counted.
as §3
Next, the uptake of tritium-labeled D- and L-e-MAPP was examined. To this end, D- and L-e-MAPP labeled in the N-myristoyl group were synthesized and used for uptake and metabolism studies. […] At 24 hr, approximately 20% of D-e-MAPP (5 μM) and 26% of L-e-MAPP (5 μM) were taken up by cells.
The partitioning of the label taken up by cells into the lipid organic phase was evaluated next.

Structure (SMILES)	effect on activity of neutral sphingomyelinase (neutral sphingomyelinase)	effect on endogenous levels of sphingomyelin [1]	effect on cell growth, exposure for only 15 min ([2]; HL-60, 5 μM, back-extracted with 5 washes after 15 min)	effect on cell growth, continuous exposure ([2]; HL-60, 5 μM, compared to vehicle-treated cells)	effect on cell growth [2]	population of cells in G2/M phase (HL-60 cells [3]; from 10% untreated)	population of cells in S phase (HL-60 cells [3]; from 30% untreated)	population of cells in G0/G1 phase (HL-60 cells [3]; from 60% untreated)	effect on activity of acidic sphingomyelinase (acidic sphingomyelinase)	Glucosylceramide synthase activity [4]	inhibition of cerebroside synthase activity [4]	partitioning of label taken up into lipid organic phase (HL-60 cells [5])	uptake by cells (HL-60 cells [5]; HL-60, 5 μM)	compound remaining associated with the cell pellet after washing (HL-60 cells [5]; HL-60, 5 μM, five cycles of washing, compared to unwashed cells)	effect on cell cycle progression (HL-60 cells [3])
CCCCCCCCCCCCCC(=O)N[C@H](C)[C@@H](O)c1ccccc1 [D-e-MAPP, D-erythro-2-(N-myristolyamino)-1-phenyl-1-propanol]	neither D- nor L-e-MAPP modulated the activity of neutral or acidic sphingomyelinases	neither D- nor L-e-MAPP modulated the endogenous levels of sphingomyelin	did not affect cell growth	dramatic growth inhibition	time dependent suppression of growth	3%	24%	73%	neither D- nor L-e-MAPP modulated the activity of neutral or acidic sphingomyelinases	0.946 ± 0.0265 nmol/h/mg protein	Neither D- nor L-e-MAPP caused inhibiton of cerebroside synthase activity	majority of the label in D-e-MAPP or L-e-MAPP remained associated with the organic phase	approximately 20%	less than 10%	
CCCCCCCCCCCCCC(=O)N[C@@H](C)[C@H](O)c1ccccc1 [L-e-MAPP, L-erythro-2-(N-myristolyamino)-1-phenyl-1-propanol]	neither D- nor L-e-MAPP modulated the activity of neutral or acidic sphingomyelinases	neither D- nor L-e-MAPP modulated the endogenous levels of sphingomyelin			largely inactive				neither D- nor L-e-MAPP modulated the activity of neutral or acidic sphingomyelinases	1.009 ± 0.0383 nmol/h/mg protein	Neither D- nor L-e-MAPP caused inhibiton of cerebroside synthase activity	majority of the label in D-e-MAPP or L-e-MAPP remained associated with the organic phase	~26%		largely without effect
